The text below walks through data of patent publication US12616712B2 (LONZA SALES AG, priority 2019, dated 2026).

The assay relates to GL261-Luc glioblastoma multiforme. The assay is described as follows: syngeneic GL261-Luc glioblastoma multiforme model. The class given is in vivo. To be noted: mice, control groups, FIG. 7A. The method, then: The efficacy of exoSTING treatment in a syngeneic GL261-Luc glioblastoma multiforme model was assessed. Briefly, 5×10^5 GL261-LUC cells were administered via a 10 μl intra-striatal stereotactic injection to the mice. Tumor presence was confirmed by T1-weighted (T1W) MRI scan 15 days later. Four days after the MRI scan, when tumors were approximately 80-100 mm^3, stereotactic coordinates were used to administer 5 μl (˜120 ng) ExoSTING every 72 hours for 3 total injections to some of the animals. […] Anti-PDL-1 mAb was dosed twice weekly for 2 weeks (IOmpk IV). Phosphate buffered saline (PBS) alone and Temozolomide (TMZ) alone were dosed twice weekly for 2 weeks (30mpk IP). Mice were then followed for survival end-point.

As to `Cn1nnc2c(C(N)=O)ncn2c1=O` [Temozolamide], the “survival: all animals succumbed to the tumor by day post tumor induction” value is about 40 days.
